The values that follow come from patent publication US8748480B2, “Methods for treating opioid tolerance” (priority 2005, dated 2014).

The test system of assay [1] is fMLP-dependent ERK activation. In words: fMLP-dependent ERK activation. It counts as cell-based.
Assay [2] deals with T1, Gβγ (protein interaction site of Gβ) (Rattus norvegicus, UniProt P54311).
T1 construct: made in house; host or cells: Sf9 insect cells (baculovirus), co-expressed with BirA and (His)6-Gαi1
In words: Phage ELISA: small molecules competing with SIGK-phage binding to immobilized biotinylated Gβγ. Conditions: read-out: IC50. How it is done:
Exemplary compounds of the present invention were initially selected from a computational screen to identify ligands that bind to the novel protein interaction site of Gβ. The computational screen involved using SYBYL molecular modeling software to model the protein interaction site of Gβ as determined in the X-ray structure disclosed herein. The computational docking screen was performed with the National Cancer Institute 1900 compound library wherein the compounds were tested for docking to the protein interaction site of Gβ using FLEXX™ (Tripos, Inc., St. Louis, Mo.) for docking and CSCORE™ (Tripos, Inc.) to evaluate the energetics and fitness of the docked structure. Algorithm-dependent lists of compounds, predicted to interact with the protein interaction site of Gβ and the structural model of the interaction, were generated. Selected compounds were subsequently analyzed in the phage ELISA binding assay disclosed herein to assess whether these compounds could bind to the protein interaction site of Gβ and interfere with protein interactions at this surface.
Wild-type Gβ1 and Gβ1 mutants were made in the baculovirus vector PDW464 which encodes a biotinylation site at a lysine upstream of the amino terminus of Gβ1 (Goubaeva, et al. (2003) supra). Mutants were generated by overlap extension PCR using standard protocols. The wild-type and mutant Gβ1 constructs consisted of a 20 amino acid biotin acceptor peptide (BAP) sequence fused in-frame with the amino-terminus of rat Gβ1 subunit. When coexpressed with biotin holoenzyme synthetase (BirA) in Sf9 cells, the Gβ1 subunit becomes covalently biotinylated in vivo at the Specific lysine acceptor residue in the BAP.
Phage ELISA assays used to assess peptide binding to wild-type and mutant b-βγ were performed according to standard methods (Smrcka and Scott (2002) Methods Enzymol. 344:557-76). Briefly, 1 μg streptavidin was immobilized in the well of a […] overnight at 4° C. The wells were blocked with 100 μL of 2% bovine serum albumin (BSA) in Tris-buffered saline (TBS) for 1 hour at 4° C. followed by three washes of 1×TBS/0.5% TWEEN®. […] The wells were washed, followed by the addition of 1×10^6 to 1×10^10 phage particles and incubated at 4° C. for 3 hours. The wells were then washed six times with TBS/0.5% TWEEN® followed by addition of 40 μL of 1:5000 dilution of anti-M13 antibody (Pharmacia, Uppsala, Sweden) and incubated at room temperature for 1 hour. The wells were washed, followed by the addition of 40 μL of (2,2′-Azino-bis(3-ethylbenzthiazoline)-6-sulfonic acid (ABTS) and the colorimetric reaction was monitored at 405 nm. Non-specific binding was subtracted for each reading.
A phage ELISA assay was used to determine whether small molecules identified in the computational screen could interact with the Gβγ protein interaction surface. […] The screen was based on a reduction in the optical density (OD) of wells containing Gβγ subunits and phage. […] Three background wells contained no βγ subunits.
As disclosed herein, biotinylated Gβγ subunits were immobilized on the surface of a 96-well plate coated with streptavidin, phage displaying Gβγ-binding peptides were subsequently added and binding in the presence and absence of test compounds detected with an anti-phage antibody.
For orientation: In an ELISA, binding on a coated surface is turned into a signal by an enzyme label.

Molecules are shown by their SMILES.

In the case of `O=C(O)C1CC2C3(Cl)C(Cl)=C(Cl)C(Cl)C2(CC1c1c2ccc(=O)c(O)c-2oc2c(O)c(O)ccc12)C3(Cl)Cl` (centres unmarked) [NSC158110], the “fMLP-dependent ERK activation” value in assay [1] is “do not interfere”.
A word on the IC50: it is the concentration needed to halve the response being measured. For the molecule `Ic1ccc2c(c1)N(c1ccccc1)c1cc(Nc3ccc4nc5ccc(I)cc5[n+](-c5ccccc5)c4c3)ccc1N2` [NSC402959], in assay [2], the IC50 was 2 µM.
